Data set [1] deals with T1, Full-length human PDK4 (GST-fusion) (Homo sapiens, UniProt Q16654).
T1 construct: GST (Glutathione S-transferase) (N); made in house; host or cells: E. coli
Kind of data set: Off-chip mobility shift assay (MSA) for PDK4 inhibition. It counts as biochemical. To be noted: at 10 µg/mL of each inhibitor; for inhibition at 10 µg/mL: read-out: PDK4 Inhibitory Activity (%). On the procedure: Full-length human PDK4 [amino acids 1-411 of accession number NP_002603.1] was expressed as an N-terminal Glutathione S-transferase (GST)-fusion protein (73 kDa) using an E. coli expression system. GST-PDK4 was purified using glutathione affinity chromatography.
Derivatives were dissolved in dimethyl sulfoxide (DMSO) and further diluted in DMSO to prepare a solution with a 100-fold higher concentration than the test sample solution. This solution was further diluted 25-fold in assay buffer (20 mM 4-(2-hydroxyethyl)-1-piperazineethanesulfonic acid (HEPES), 0.01% Triton X-100, 2 mM dithiothreitol (DTT), pH 7.5) to make a test sample solution. The positive control substance solution was prepared the same way.
(1) 5µL of test sample solution, 5 µL of substrate/ATP/metal solution in assay buffer (20 mM HEPES, 0.01% Triton X-100, 2 mM DTT, pH 7.5), and 10 µL of kinase solution in assay buffer prepared in assay buffer were mixed in the wells of a 384-well polypropylene plate and allowed to react for 5 h at room temperature. (2) The reaction was stopped by adding 70 µL of Termination Buffer (QuickScout Screening Assist MSA; Carna Biosciences). (3) Substrate peptides and phosphorylated peptides in the reaction solution were separated and quantified using the LabChip system (Perkin Elmer, Shelton, CT, USA). (4) The product ratio (P/(P+S)) was calculated from the substrate peptide peak height (S) and the phosphorylated peptide peak height (P) of the kinase reaction.
The average signal in control wells containing all reaction components was considered to be 0% inhibition. The average signal in background wells (without enzyme) was considered as 100% inhibition, and the % inhibition was calculated from the average signal in each test sample well.

Data set [2] relates to TAC mice (heart failure with reduced EF). Kind of data set: Transverse aortic constriction (TAC) heart failure model, echocardiography. It counts as in vivo, mouse (C57BL/6J). The conditions noted are these: 2.8 mg/kg i.p. once daily for 1 week, compared to DCA. On the procedure:
C57BL/6J mice were purchased from Japan SLC, Inc. (Hamamatsu, Japan) and Takasugi Experimental Animals Supply Co., Ltd. (Kasukabe, Japan), and were kept under a 12 h light–dark schedule. All animal handling procedures in this study complied with the Jichi Medical University Guide for Laboratory Animals and the ARRIVE guidelines. The Institutional Animal Care and Concern Committee at Jichi Medical University approved all experimental protocols. This study used 8-week-old male mice.
Mice were intubated prior to surgery and were maintained under assisted ventilation on a heating pad throughout the procedure. Under a microscope, a midline incision was made on the skin from the neckline to the mid-chest level. A partial thoracotomy was made through the second rib, and the sternum was retracted to aid visualization of the aorta. After periaortic tissue was removed, a 27-G blunt needle was placed in parallel along the transverse aorta, and the suture was tied over the needle between the innominate artery and the left common carotid. Then, the rib cage was closed, followed by closure of the skin. […] Mice were kept in a heating unit until they recovered completely from anesthesia.
At weeks 0, 4, and 5 after TAC induction, mice were anesthetized with 1.5% isoflurane and secured on an animal handling and physiological monitoring system in the supine position. Images were captured with a 30 MHz probe attached to a Vevo 2100 (VisualSonics, Toronto, ON, Canada). Heart rate was maintained at 400 to 500 bpm, and the temperature of the system was kept at 37 °C while echocardiographic images were captured. The ejection fraction was calculated using the Vevo2100 system based on the Teichholz method.
Four weeks after the TAC surgery, mice with an EF less than 55 were subjected to injection. Then, 2.8 mg/kg of compound 8 or DCA in 5% DMSO in saline or 5% DMSO in saline was injected peritoneally every day for 7 days.
(§1) With five synthesized Vitamin K3 derivatives, their in vitro PDK4 inhibitory activity and cytotoxicity were evaluated. In vitro activities were tested using fluorescently labeled PDH by measuring phosphorylated and unphosphorylated PDH of the derivatives using a CCD camera. For cytotoxicity, IC50 values were calculated by adding the derivatives to the human fibroblast culture medium and monitoring growth inhibition. Then, we evaluated the efficacy of novel PDK4 inhibitor candidates in the treatment of heart failure. The transverse aorta of wild-type mice was constricted to induce a pressure overload in the left ventricle, and the ejection fraction (EF) was postoperatively measured at 4 weeks. Subsequently, 2.8 mg/kg of each derivative was intraperitoneally administered to mice once daily for 1 week to evaluate improvement in EF values.

The next data set concerns human fibroblast cells. Kind of data set: Cytotoxicity assay against human fibroblast cells (growth inhibition). It counts as cell-based. The conditions noted are these: human fibroblasts, read-out: Toxicity (IC50), half-maximal inhibitory concentration to inhibit fibroblast growth. On the procedure: Wild-type fibroblasts obtained from a volunteer expressing [F352F + V368V] (FV–FV alleles), purchased from RIKEN Cell Bank (Tsukuba, Japan), were used, and the cytotoxicity assay was carried out as described in the previous paper.
as §1

The subject of the next data set is PDK4. More on the design: method as in PMID 24865588. To be noted: previous study; read-out: IC50 of PDK4 inhibition; cited from earlier work.

In brackets after ≈: the same amount, converted by molar mass. Bounds are passed on as bounds.

T1 sequence (Q16654 whole entry, the tested form may be a part): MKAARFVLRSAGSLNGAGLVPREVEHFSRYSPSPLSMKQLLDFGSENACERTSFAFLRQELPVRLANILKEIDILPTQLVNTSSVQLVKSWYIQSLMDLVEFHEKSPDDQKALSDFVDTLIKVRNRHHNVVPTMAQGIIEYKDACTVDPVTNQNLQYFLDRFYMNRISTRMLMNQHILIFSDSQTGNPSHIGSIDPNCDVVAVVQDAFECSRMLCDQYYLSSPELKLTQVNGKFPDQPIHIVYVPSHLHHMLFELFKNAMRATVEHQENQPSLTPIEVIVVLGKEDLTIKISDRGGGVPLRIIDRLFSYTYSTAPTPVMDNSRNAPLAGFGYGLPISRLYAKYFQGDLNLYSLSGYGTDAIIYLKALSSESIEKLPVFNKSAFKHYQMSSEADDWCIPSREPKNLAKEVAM

As to `COC(=O)c1ccc2c(c1)C(=O)C=C(C)C2=O` [Compound 11], in data set [1], the inhibition at 10 µg/mL turned out to be 65.4%. For the same compound, the “Change in EF (EF5/EF4) after a week of daily injection” value (from here on “Change in EF (EF5/EF4) after a week”) in data set [2] is given as “improve”. Also, the IC50 in the data set on human fibroblast cells came out at 7 µg/mL (≈ 30.4 µM).

Take `CC1=CC(=O)c2cc(C(=O)N[C@@H](CO)C(=O)O)ccc2C1=O` [Compound 13b]: the melting point lay in the range of 166.6 to 166.8 °C. Also, the inhibition at 10 µg/mL in data set [1] came out at 63.2%. For the same compound, the “Change in EF (EF5/EF4) after a week” value in data set [2] is on record as “improve”. Moreover, in the data set on human fibroblast cells, the IC50 is above 99 µg/mL.

Regarding `CC1=CC(=O)c2cc(C(=O)NCC(=O)O)ccc2C1=O` [Compound 13a], the melting point was in the range of 163 to 163.2 °C. In data set [1], the inhibition at 10 µg/mL came out at 66.8%. Besides, the “Change in EF (EF5/EF4) after a week” value in data set [2] is given as “improve”. In addition, the IC50 in the data set with human fibroblast cells is above 110 µg/mL.

For the compound `O=C(O)C(Cl)Cl` [DCA, dichloroacetic acid], in the data set with PDK4, the IC50 was 57.8 µM.

As for `COC(=O)c1ccc2c(c1)C(=O)C(C)=CC2=O` [Compound 5], the inhibition at 10 µg/mL in data set [1] was determined as 34.6%. Besides, the “Change in EF (EF5/EF4) after a week” value in data set [2] is recorded as “improve”. Further, the IC50 in the data set on human fibroblast cells is 8 µg/mL (≈ 34.7 µM).

Take `CC1=CC(=O)c2ccccc2C1=O` [Vitamin K3, reference compound]: in data set [1], the “PDK4 Inhibitory Activity (%)” value worked out at 65.9% and the inhibition at 10 µg/mL turned out to be 66%. Moreover, the IC50 with human fibroblast cells is 18 µg/mL (≈ 105 µM).

The values above are taken from publication PMC10777911, “A Potent PDK4 Inhibitor for Treatment of Heart Failure with Reduced Ejection Fraction” (Cells, 2023).
